Among the data in BindingDB's records for doi:10.7270/Q2KK9971 (Nmmlsc, 2009) are EC50 values, retold here.

This assay concerns the target T1, GTPase KRas [1-37] (Homo sapiens, UniProt G3V5T7).
T1 construct: 1-37
Briefly: inhibition of fluorescent GTP binding to wild-type Ras – biochemical, pyrazoline analogs, multiplex bead flow cytometry, SAR follow-up (AID 2047).

Setting [1] is: inactive by the depositor's call.

T1 sequence (G3V5T7 whole entry): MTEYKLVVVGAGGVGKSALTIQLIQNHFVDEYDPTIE

As for `COc1ccc(C2CC(c3ccc(F)cc3)=NN2c2cc(Cl)ccc2Cl)cc1` (stereo not given) [2-(2,5-dichlorophenyl)-5-(4-fluorophenyl)-3-(4-methoxyphenyl)-3,4-dihydropyrazole], the EC50 was over 30 µM. The same measure, in the same setting: next, `COc1ccccc1C1CC(c2ccccc2)=NN1c1ccc(S(N)(=O)=O)cc1` (stereo not given) [4-[3-(2-methoxyphenyl)-5-phenyl-3,4-dihydropyrazol-2-yl]benzenesulfonamide]: over 30 µM; `CCc1ccc(C2=NN(c3ccc(S(N)(=O)=O)cc3)C(c3ccc(F)cc3)C2)cc1` (stereo not given): over 30 µM; `Brc1ccc(N2N=C(c3ccccc3)CC2c2ccccc2)cc1` (stereo not given): over 30 µM.

On to `NS(=O)(=O)c1ccc(N2N=C(c3ccccc3)CC2c2ccc(Cl)cc2)cc1` (stereo not given) [4-[3-(4-chlorophenyl)-5-phenyl-3,4-dihydropyrazol-2-yl]benzenesulfonamide], for which the EC50 is over 30 µM. Still for that read-out and setting: the result for `COc1ccc(C2CC(c3cccc(F)c3)=NN2c2ccc(S(N)(=O)=O)cc2)cc1` (stereo not given) [4-[5-(3-fluorophenyl)-3-(4-methoxyphenyl)-3,4-dihydropyrazol-2-yl]benzenesulfonamide] reads over 30 µM. On the same count and under the same terms, next, `Cc1onc(-c2ccccc2)c1-c1ccc(S(N)(=O)=O)cc1`: over 30 µM; `NS(=O)(=O)c1ccc(N2N=C(c3ccccc3)CC2c2ccccc2Br)cc1` (stereo not given) [4-[3-(2-bromophenyl)-5-phenyl-3,4-dihydropyrazol-2-yl]benzenesulfonamide]: over 30 µM. Same read-out and setting: next, `COc1ccc(C2CC(c3cccs3)=NN2c2ccc(S(N)(=O)=O)cc2)cc1` (stereo not given) [KUC103438N]: over 30 µM; `Fc1ccc(C2=NN(c3cccc(Br)c3)C(c3ccccc3)C2)cc1` (stereo not given) [2-(3-bromophenyl)-5-(4-fluorophenyl)-3-phenyl-3,4-dihydropyrazole]: over 30 µM.

For `COc1ccccc1C1CC(c2ccccc2)=NN1c1ccccc1` (stereo not given), the EC50 was over 30 µM. Same read-out and setting: next, `Cc1ccccc1N1N=C(c2ccccc2)CC1c1ccc(N(C)C)cc1` (stereo not given) [N,N-dimethyl-4-[2-(2-methylphenyl)-5-phenyl-3,4-dihydropyrazol-3-yl]aniline]: over 30 µM; `Cc1cccc(C2CC(c3ccccc3)=NN2c2ccc(S(N)(=O)=O)cc2)c1` (stereo not given): over 30 µM. On the same count and under the same terms, next, `CN(C)c1ccc(C2CC(c3ccc(Br)cc3)=NN2c2ccccc2)cc1` (stereo not given) [UNM-0000305846]: over 30 µM; `COc1ccc(C2CC(c3ccccc3)=NN2c2ccc(C(=O)O)cc2)cc1` (stereo not given) [UNM-0000306085]: over 30 µM; `COc1ccc(C2CC(c3ccc(C)cc3)=NN2c2ccc(S(N)(=O)=O)cc2)cc1` (stereo not given): over 30 µM. Under setting [1], `COc1ccc(C2CC(c3ccc(Cl)cc3)=NN2c2ccccc2)cc1OC` (stereo not given) [UNM-0000305858] came in with an EC50 of 0.079 µM. For the compound `COc1ccc(C2=NN(c3cccc(F)c3)C(c3ccc(OC)cc3)C2)cc1` (stereo not given) [2-(3-fluorophenyl)-3,5-bis(4-methoxyphenyl)-3,4-dihydropyrazole], the EC50 is over 30 µM. Still for that read-out and setting: next, `NS(=O)(=O)c1ccc(N2N=C(c3ccccc3)CC2c2cccc(Cl)c2)cc1` (stereo not given) [UNM-0000306161]: over 30 µM; `COc1ccc(C2CC(c3ccncc3)=NN2c2ccc(S(N)(=O)=O)cc2)cc1` (stereo not given): over 30 µM. On the same count and under the same terms, the result for `COc1ccc(C2CC(c3cccc(Cl)c3)=NN2c2ccc(S(N)(=O)=O)cc2)cc1` (stereo not given) [UNM-0000306134] reads over 30 µM; that for `Clc1cccc(N2N=C(c3ccccc3)CC2c2ccccc2)c1` (stereo not given), over 30 µM.

For `COc1ccc(C2CC(c3ccc(Cl)cc3)=NN2c2ccc(S(N)(=O)=O)cc2)cc1` (stereo not given), the EC50 was over 30 µM. The same measure, in the same setting: the result for `Clc1ccc(N2N=C(c3ccccc3)CC2c2ccccc2)cc1` (stereo not given) reads over 30 µM. On the same count and under the same terms, next, `COc1ccc(C2=NN(c3cccc(F)c3)C(c3ccc(Cl)cc3)C2)cc1` (stereo not given) [3-(4-chlorophenyl)-2-(3-fluorophenyl)-5-(4-methoxyphenyl)-3,4-dihydropyrazole]: over 30 µM; `COc1ccc(C2CC(c3ccccc3)=NN2c2ccc(C(N)=O)cc2)cc1` (stereo not given) [UNM-0000305870]: over 30 µM. Take `COc1ccc(C2CC(c3ccccc3C(F)(F)F)=NN2c2ccc(S(N)(=O)=O)cc2)cc1` (stereo not given) [KUC103474N]: the 50% effective concentration (EC50) was over 30 µM. Still for that read-out and setting: next, `COc1ccc(C2CC(c3ccc(F)cc3)=NN2c2cccc(F)c2)cc1OC` (stereo not given): over 30 µM. On to `FC(F)(F)c1ccccc1C1CC(c2ccc(Br)cc2)=NN1c1ccccc1` (stereo not given) [5-(4-bromophenyl)-2-phenyl-3-[2-(trifluoromethyl)phenyl]-3,4-dihydropyrazole], for which the concentration for a half-maximal effect (EC50) is over 30 µM. Take `COc1ccc(C2C[C-](c3ccccc3)N=[N+]2c2ccc([N+](=O)[O-])cc2)cc1` (stereo not given) [3-(4-methoxyphenyl)-2-(4-nitrophenyl)-5-phenyl-3,4-dihydropyrazole]: the EC50 is over 30 µM. Under setting [1], `COc1ccc(C2=NN(c3ccccc3)C(c3ccccc3C(F)(F)F)C2)cc1` (stereo not given) yielded an EC50 of 17.7 µM.

`COc1ccc(C2CC(c3ccccc3)=NN2c2ccc(Cl)c(C(=O)O)c2)cc1OC` (stereo not given) [2-chloro-5-[3-(3,4-dimethoxyphenyl)-5-phenyl-3,4-dihydropyrazol-2-yl]benzoic acid] showed an EC50 of over 30 µM. The compound `O=S(=O)(O)c1ccc(N2N=C(c3ccccc3)CC2c2ccccc2)cc1` (stereo not given) [UNM-0000305834] gave an EC50 of over 30 µM. Same read-out and setting: next, `COc1ccc(C2CC(c3ccc(Br)cc3)=NN2c2ccccc2Cl)cc1` (stereo not given) [UNM-0000305832]: over 30 µM; `COc1ccc(C2CC(c3ccsc3)=NN2c2ccc(S(N)(=O)=O)cc2)cc1` (stereo not given) [4-[3-(4-methoxyphenyl)-5-thiophen-3-yl-3,4-dihydropyrazol-2-yl]benzenesulfonamide]: over 30 µM.

Compound `FC(F)(F)c1cccc(N2N=C(c3ccc(Cl)cc3)CC2c2ccccc2Cl)c1` (stereo not given) [UNM-0000305859] gave an EC50 of over 30 µM. `COc1ccc(C2CC(c3ccc(F)cc3)=NN2c2ccc(S(N)(=O)=O)cc2)cc1` (stereo not given) [4-[5-(4-fluorophenyl)-3-(4-methoxyphenyl)-3,4-dihydropyrazol-2-yl]benzenesulfonamide] yielded an EC50 under setting [1] of 0.028 µM.

`COc1ccc(C2=NN(c3ccc(Cl)c(Cl)c3)C(c3ccc(OC)cc3)C2)cc1` (stereo not given) [2-(3,4-dichlorophenyl)-3,5-bis(4-methoxyphenyl)-3,4-dihydropyrazole] displayed an EC50 of over 30 µM. On the same count and under the same terms, the result for `COc1ccc(C2CC(c3cccnc3)=NN2c2ccc(S(N)(=O)=O)cc2)cc1` (stereo not given) reads over 30 µM. The same measure, in the same setting: the result for `CN(C)c1ccc(C2CC(c3ccc(Cl)cc3)=NN2c2ccccc2)cc1` (stereo not given) [UNM-0000305847] reads over 30 µM; that for `COc1ccc(C2CC(c3cccc(N(C)C)c3)=NN2c2ccc(S(N)(=O)=O)cc2)cc1` (stereo not given), over 30 µM. Same read-out and setting: next, `O=[N+]([O-])c1cccc(C2C[C-](c3ccc(F)cc3)N=[N+]2c2ccccc2)c1` (stereo not given) [5-(4-fluorophenyl)-3-(3-nitrophenyl)-2-phenyl-3,4-dihydropyrazole]: over 30 µM; `Cc1cccc(N2N=C(c3ccccc3)CC2c2ccccc2)c1` (stereo not given) [UNM-0000305835]: over 30 µM; `COc1ccc(C2CC(c3ccc(Br)cc3)=NN2c2ccc(S(N)(=O)=O)cc2)cc1` (stereo not given) [UNM-0000306138]: over 30 µM. In the case of `COc1ccc(C2CC(c3ccccc3Br)=NN2c2ccc(S(N)(=O)=O)cc2)cc1` (stereo not given) [UNM-0000306112], the EC50 was over 30 µM. Still for that read-out and setting: the result for `COc1ccc(C2CC(C)=NN2c2ccc(S(N)(=O)=O)cc2)cc1` (stereo not given) [4-[3-(4-methoxyphenyl)-5-methyl-3,4-dihydropyrazol-2-yl]benzenesulfonamide] reads over 30 µM; that for `Cc1ccccc1[N+]1=N[C-](c2ccccc2)CC1c1cccc([N+](=O)[O-])c1` (stereo not given) [UNM-0000305854], over 30 µM. For `COc1ccc(C2CC(C(C)(C)C)=NN2c2ccc(S(N)(=O)=O)cc2)cc1` (stereo not given) [KUC103450N], the EC50 is over 30 µM. Same read-out and setting: the result for `COc1ccc(C2CC(c3ccccc3)=NN2c2cccc(S(N)(=O)=O)c2)cc1` (stereo not given) [3-[3-(4-methoxyphenyl)-5-phenyl-3,4-dihydropyrazol-2-yl]benzenesulfonamide] reads over 30 µM.

`CN(C)c1ccc(C2CC(c3ccc(F)cc3)=NN2c2ccccc2)cc1` (stereo not given) [UNM-0000305866]: the EC50 was over 30 µM. Same read-out and setting: the result for `COc1ccc(C2=NN(c3ccccc3)C(c3ccc(OC)c(OC)c3C(=O)O)C2)cc1` (stereo not given) [UNM-0000305848] reads over 30 µM; that for `COc1ccc(C2CC(c3ccc(N(C)C)cc3)=NN2c2ccc(S(N)(=O)=O)cc2)cc1` (stereo not given) [KUC103422N], over 30 µM; that for `CN(C)c1ccc(C2C[C-](c3ccccc3)N=[N+]2c2ccc([N+](=O)[O-])cc2)cc1` (stereo not given), over 30 µM.

Regarding `NS(=O)(=O)c1ccc(N2N=C(c3ccc(Br)cc3)CC2c2ccc(F)cc2)cc1` (stereo not given) [4-[5-(4-bromophenyl)-3-(4-fluorophenyl)-3,4-dihydropyrazol-2-yl]benzenesulfonamide], the EC50 is over 30 µM.

`COc1ccccc1N1N=C(c2ccccc2)CC1c1ccccc1` (stereo not given) [UNM-0000305855] yielded a concentration giving a half-maximal response (EC50) of over 30 µM. Still for that read-out and setting: next, `O=[N+]([O-])c1ccc([N+]2=N[C-](c3ccccc3)CC2c2ccccc2)cc1` (stereo not given): over 30 µM; `COc1ccc(C2CC(c3ccccc3OC)=NN2c2ccc(S(N)(=O)=O)cc2)cc1` (stereo not given): over 30 µM.

Turning to `COc1ccc(C2=NN(c3ccccc3F)C(c3ccc(F)cc3)C2)cc1` (stereo not given) [UNM-0000305860], the EC50 under setting [1] amounted to 13.5 µM. Consider `NS(=O)(=O)c1ccc(N2N=C(c3ccccc3)CC2c2cccc(Br)c2)cc1` (stereo not given) [UNM-0000306147], for which the EC50 is over 30 µM. The same measure, in the same setting: the result for `Cc1ccc(C2CC(c3ccccc3)=NN2c2ccc(S(N)(=O)=O)cc2)cc1` (stereo not given) reads over 30 µM. On to `CN(C)c1ccc(C2CC(c3ccccc3)=NN2c2ccccc2)cc1` (stereo not given) [4-(2,5-diphenyl-3,4-dihydropyrazol-3-yl)-N,N-dimethylaniline], for which the midpoint of the response under setting [1], the EC50, lay at 0.049 µM. On to `O=S(=O)(c1ccc(N2N=C(c3ccccc3)CC2c2ccccc2)cc1)C(F)F` (stereo not given), for which the EC50 was over 30 µM. `COc1ccc(C2CC(c3cccc(C(F)(F)F)c3)=NN2c2ccc(S(N)(=O)=O)cc2)cc1` (stereo not given): the EC50 is over 30 µM. Same read-out and setting: the result for `COc1ccc(C2CC(C3CCCCC3)=NN2c2ccc(S(N)(=O)=O)cc2)cc1` (stereo not given) [4-[5-cyclohexyl-3-(4-methoxyphenyl)-3,4-dihydropyrazol-2-yl]benzenesulfonamide] reads over 30 µM; that for `Fc1ccccc1C1CC(c2ccc(Br)cc2)=NN1c1ccc(Br)cc1` (stereo not given) [2,5-bis(4-bromophenyl)-3-(2-fluorophenyl)-3,4-dihydropyrazole], over 30 µM.
